Assay results as given in US9113629B2, “4-amino-6-(4-substituted-phenyl)-picolinates and 6-amino-2-(4-substituted-phenyl)-pyrimidine-4-carboxylates and their use as herbicides” (DOW AGROSCIENCES LLC, priority 2013, dated 2015).
Read-outs that look alike come from different tables or passages of the source.

Columns and labels:
[1] = test system: Key Broadleaf Weed and Crop Species; assay: Post-emergent Test II herbicidal activity (Table 5); assay type: in vivo; details: post-emergence, 336 h, 14 days after application
Outline: (§1)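 Percent injury, 0 (none) to 100 (complete kill), was judged visually 14 d after spraying young plants at the first or second true leaf stage with compound in an acetone/DMSO aqueous carrier at 187 L/ha. Plants were kept in a greenhouse at 23–29 °C by day.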

[2] = test system: Key Grass and Sedge Weeds as well as Grass Crops; assay: Post-emergent Test II herbicidal activity (Table 6); assay type: in vivo; details: post-emergence, 336 h; for pest or weed control at 70 g/ha: application rate 70 g ai/ha; for pest or weed control at 140 g/ha: application rate 140 g ai/ha
Outline: as §1

[3] = CYPES: yellow nutsedge (Cyperus esculentus), read-out: Visual Growth Reduction (%) 14 Days After Application, CYPES
[4] = DIGSA: crabgrass (Digitaria sanguinalis), read-out: Visual Growth Reduction (%) 14 Days After Application, DIGSA
[5] = ECHCG: barnyardgrass (Echinochloa crus-galli), read-out: Visual Growth Reduction (%) 14 Days After Application, ECHCG
[6] = ORYSA: rice (Oryza sativa), read-out: Visual Growth Reduction (%) 14 Days After Application, ORYSA
[7] = SETFA: giant foxtail (Setaria faberi), read-out: Visual Growth Reduction (%) 14 Days After Application, SETFA
[8] = SORVU: grain sorghum (Sorghum vulgare), read-out: Visual Growth Reduction (%) 14 Days After Application, SORVU
[9] = TRZSS (wheat, Triticum aestivum), read-out: Visual Growth Reduction (%) 14 Days After Application, TRZSS
[10] = ZEAMX: maize, corn (Zea mays), read-out: Visual Growth Reduction (%) 14 Days After Application, ZEAMX
[11] = Triticum aestivum, TRZSS (wheat), read-out: Visual Growth Reduction (%) 14 Days After Application, TRZSS

COC(=O)c1nc(-c2cc(F)c(C(F)F)cc2F)cc(N)c1Cl [Compound 205]
0 to 29%: pest or weed control at 70 g/ha [2, 6] | pest or weed control at 140 g/ha [2, 6] | pest or weed control at 70 g/ha [2, 9]
85 to 94%: pest or weed control at 140 g/ha ([1]; BRSNN: oilseed-rape, canola (Brassica napus), 140 g ai/ha, post-emergent, read-out: Visual Growth Reduction (%) 14 Days After Application BRSNN) | pest or weed control at 70 g/ha ([1]; HELAN: sunflower (Helianthus annuus), 70 g ai/ha, post-emergent, read-out: Visual Growth Reduction (%) 14 Days After Application HELAN) | pest or weed control at 70 g/ha [2, 3] | pest or weed control at 70 g/ha [2, 5] | pest or weed control at 140 g/ha [2, 5]
75 to 84%: pest or weed control at 140 g/ha [2, 7] | pest or weed control at 140 g/ha [2, 8]
95 to 100%: pest or weed control at 70 g/ha ([1]; ABUTH: velvetleaf (Abutilon theophrasti), 70 g ai/ha, post-emergent, read-out: Visual Growth Reduction (%) 14 Days After Application ABUTH) | pest or weed control at 140 g/ha ([1]; ABUTH: velvetleaf (Abutilon theophrasti), 140 g ai/ha, post-emergent, read-out: Visual Growth Reduction (%) 14 Days After Application ABUTH) | pest or weed control at 70 g/ha ([1]; AMARE: redroot pigweed (Amaranthus retroflexus), 70 g ai/ha, post-emergent, read-out: Visual Growth Reduction (%) 14 Days After Application AMARE) | pest or weed control at 140 g/ha ([1]; AMARE: redroot pigweed (Amaranthus retroflexus), 140 g ai/ha, post-emergent, read-out: Visual Growth Reduction (%) 14 Days After Application AMARE) | pest or weed control at 70 g/ha ([1]; CHEAL: lambsquarters (Chenopodium album), 70 g ai/ha, post-emergent, read-out: Visual Growth Reduction (%) 14 Days After Application CHEAL) | pest or weed control at 140 g/ha ([1]; CHEAL: lambsquarters (Chenopodium album), 140 g ai/ha, post-emergent, read-out: Visual Growth Reduction (%) 14 Days After Application CHEAL) | pest or weed control at 70 g/ha ([1]; EPHHL: wild poinsettia (Euphorbia heterophylla), 70 g ai/ha, post-emergent, read-out: Visual Growth Reduction (%) 14 Days After Application EPHHL) | pest or weed control at 140 g/ha ([1]; EPHHL: wild poinsettia (Euphorbia heterophylla), 140 g ai/ha, post-emergent, read-out: Visual Growth Reduction (%) 14 Days After Application EPHHL) | pest or weed control at 140 g/ha ([1]; HELAN: sunflower (Helianthus annuus), 140 g ai/ha, post-emergent, read-out: Visual Growth Reduction (%) 14 Days After Application HELAN) | pest or weed control at 140 g/ha [2, 3]
60 to 74%: pest or weed control at 70 g/ha ([1]; BRSNN: oilseed-rape, canola (Brassica napus), 70 g ai/ha, post-emergent, read-out: Visual Growth Reduction (%) 14 Days After Application BRSNN) | pest or weed control at 140 g/ha ([1]; VIOTR: wild pansy (Viola tricolor), 140 g ai/ha, post-emergent, read-out: Visual Growth Reduction (%) 14 Days After Application VIOTR) | pest or weed control at 70 g/ha [2, 8] | pest or weed control at 140 g/ha [2, 10]
141.8 to 145 °C: melting point
30 to 44%: pest or weed control at 70 g/ha [2, 4] | pest or weed control at 140 g/ha [2, 9] | pest or weed control at 70 g/ha [2, 10]
45 to 59%: pest or weed control at 70 g/ha ([1]; VIOTR: wild pansy (Viola tricolor), 70 g ai/ha, post-emergent, read-out: Visual Growth Reduction (%) 14 Days After Application VIOTR) | pest or weed control at 140 g/ha [2, 4] | pest or weed control at 70 g/ha [2, 7]

COC(=O)c1nc(-c2ccc(C(F)(F)F)c(F)c2)cc(N)c1Cl [Compound 29, methyl 4-amino-3-chloro-6-(3-fluoro-4-(trifluoromethyl)phenyl)picolinate]
85 to 94%: pest or weed control at 70 g/ha ([1]; ABUTH: velvetleaf (Abutilon theophrasti), application rate 70 g ai/ha, read-out: Visual Growth Reduction (%) 14 Days After Application, ABUTH) | pest or weed control at 140 g/ha ([1]; ABUTH: velvetleaf (Abutilon theophrasti), application rate 140 g ai/ha, read-out: Visual Growth Reduction (%) 14 Days After Application, ABUTH) | pest or weed control at 70 g/ha ([1]; HELAN: sunflower (Helianthus annuus), application rate 70 g ai/ha, read-out: Visual Growth Reduction (%) 14 Days After Application, HELAN) | pest or weed control at 140 g/ha ([1]; HELAN: sunflower (Helianthus annuus), application rate 140 g ai/ha, read-out: Visual Growth Reduction (%) 14 Days After Application, HELAN)
45 to 59%: pest or weed control at 70 g/ha ([1]; BRSNN: oilseed-rape, canola (Brassica napus), application rate 70 g ai/ha, read-out: Visual Growth Reduction (%) 14 Days After Application, BRSNN) | pest or weed control at 140 g/ha [2, 3] | pest or weed control at 70 g/ha [2, 8] | pest or weed control at 140 g/ha [2, 8]
30 to 44%: pest or weed control at 70 g/ha [2, 3] | pest or weed control at 70 g/ha [2, 4]
60 to 74%: pest or weed control at 70 g/ha ([1]; AMARE: redroot pigweed (Amaranthus retroflexus), application rate 70 g ai/ha, read-out: Visual Growth Reduction (%) 14 Days After Application, AMARE) | pest or weed control at 140 g/ha ([1]; AMARE: redroot pigweed (Amaranthus retroflexus), application rate 140 g ai/ha, read-out: Visual Growth Reduction (%) 14 Days After Application, AMARE) | pest or weed control at 140 g/ha ([1]; BRSNN: oilseed-rape, canola (Brassica napus), application rate 140 g ai/ha, read-out: Visual Growth Reduction (%) 14 Days After Application, BRSNN) | pest or weed control at 140 g/ha [2, 4]
0 to 29%: pest or weed control at 70 g/ha ([1]; VIOTR: wild pansy (Viola tricolor), application rate 70 g ai/ha, read-out: Visual Growth Reduction (%) 14 Days After Application, VIOTR) | pest or weed control at 140 g/ha ([1]; VIOTR: wild pansy (Viola tricolor), application rate 140 g ai/ha, read-out: Visual Growth Reduction (%) 14 Days After Application, VIOTR) | pest or weed control at 70 g/ha [2, 11] | pest or weed control at 140 g/ha [2, 11] | pest or weed control at 70 g/ha [2, 5] | pest or weed control at 140 g/ha [2, 5] | pest or weed control at 70 g/ha [2, 6] | pest or weed control at 140 g/ha [2, 6] | pest or weed control at 70 g/ha [2, 7] | pest or weed control at 140 g/ha [2, 7] | pest or weed control at 70 g/ha [2, 10] | pest or weed control at 140 g/ha [2, 10]
95 to 100%: pest or weed control at 70 g/ha ([1]; CHEAL: lambsquarters (Chenopodium album), application rate 70 g ai/ha, read-out: Visual Growth Reduction (%) 14 Days After Application, CHEAL) | pest or weed control at 140 g/ha ([1]; CHEAL: lambsquarters (Chenopodium album), application rate 140 g ai/ha, read-out: Visual Growth Reduction (%) 14 Days After Application, CHEAL) | pest or weed control at 70 g/ha ([1]; EPHHL: wild poinsettia (Euphorbia heterophylla), application rate 70 g ai/ha, read-out: Visual Growth Reduction (%) 14 Days After Application, EPHHL) | pest or weed control at 140 g/ha ([1]; EPHHL: wild poinsettia (Euphorbia heterophylla), application rate 140 g ai/ha, read-out: Visual Growth Reduction (%) 14 Days After Application, EPHHL)
145 to 146 °C: melting point
